Assay results from ChEMBL document CHEMBL1649203, “Pharmacokinetics and safety of famciclovir in children with herpes simplex or varicella-zoster virus infection” (Antimicrob Agents Chemother, 2009).

Assays:
Homo sapiens [1] = assay: AUC (0 to last) in healthy human at 500 mg, po administered as single dose; format: ADME, organism-based, Plasma; parameters: dose 500 mg, time 0 - last, route oral; conditions: in vivo
Homo sapiens [2] = assay: AUC (0 to infinity) in healthy human at 500 mg, po administered as single dose; format: ADME, organism-based, Plasma; parameters: dose 500 mg, route oral, time infinity; conditions: in vivo

AUC (Homo sapiens [1]): 8.54 ug/hr.ml | AUC (Homo sapiens [2]): 8.94 ug/hr.ml
SMILES: CC(=O)OCC(CCn1cnc2cnc(N)nc21)COC(C)=O [FAMCICLOVIR]
